From paper PMC9282638, “A Suite of Activity-Based Probes To Dissect the KLK Activome in Drug-Resistant Prostate Cancer” (Journal of the American Chemical Society, 2021)
Square brackets hold non-standard residues; d marks the D form. Ends that are not written are not given here. Peptide text beside a SMILES is read from it. * marks the point of attachment. Phe(3,4-F2) = N[C@@H](Cc1ccc(F)c(F)c1)C(=O)O; Phe(4-Br) = N[C@@H](Cc1ccc(Br)cc1)C(=O)O; Phe(4-NH2) = Nc1ccc(C[C@H](N)C(=O)O)cc1; Dab = NCC[C@H](N)C(=O)O; Nle = CCCC[CH](N)C(=O)O; Abu = CC[C@H](N)C(=O)O; Dap = NC[C@H](N)C(=O)O; X1 = OB(O)C(CCCBr)N*; Ahx = NCCCCCC(=O)O

Legend:
LNCaP cells = assay: KLK activity and expression in LNCaP cells after AR signaling perturbation (streptavidin enrichment and immunoblotting); format: cell-based, human; conditions: 10 nM DHT ± 10 μM Enz, 48 h
Description: (B) KLK activity and expression in the LNCaP cell line after treatment with 10 nM DHT ± 10 μM Enz. KLK activity was assessed by streptavidin enrichment of probe-labeled KLK molecules following treatment of conditioned media with 1 μM of either 31, 20, or 39 for 1 h.
To enable detection of each KLK in WT LNCaP cells, we incubated LNCaP conditioned media with 1 μM of each KLK ABP, enriched labeled proteins on streptavidin beads, and visualized activity levels by immunoblotting with the appropriate KLK antibody (see Figure S19 for workflow).
Routine cell culture conditions: Wild-type LNCaP cells (passage <15) were grown in RPMI
Androgen-signaling Experiments: LNCaP cells grown to 80 % confluency in a T175 plate
were incubated with phenol red-free RPMI media supplemented with 5 % charcoal-stripped
FBS for 24 h. After 24 h, the media was aspirated, and the cells were incubated with serum-
free RPMI media (0 % FBS and phenol red-free) supplemented with the appropriate treatment
condition (10 nM DHT or 10 nM DHT + 10 μM Enzalutamide) for a further 48 h. After 48 h the
media was collected, passed through a 0.2 μm syringe filter and stored at – 80 °C until needed.

KLK3 [1] = conditions: cited from earlier work
KLK3 [2] = molecular target: T1, KLK3 (Homo sapiens, UniProt P07288); assay: Competitive ABPP against 3 in LNCaP conditioned media, densitometry; format: biochemical; conditions: LNCaP CM, analogue 1 h then 20 μM 3 for 1 h; 16 analogues tested
T1 construct: endogenous in cells; host or cells: LNCaP cells treated with 10 nM DHT; conditioned medium
T1 sequence (P07288 25-261): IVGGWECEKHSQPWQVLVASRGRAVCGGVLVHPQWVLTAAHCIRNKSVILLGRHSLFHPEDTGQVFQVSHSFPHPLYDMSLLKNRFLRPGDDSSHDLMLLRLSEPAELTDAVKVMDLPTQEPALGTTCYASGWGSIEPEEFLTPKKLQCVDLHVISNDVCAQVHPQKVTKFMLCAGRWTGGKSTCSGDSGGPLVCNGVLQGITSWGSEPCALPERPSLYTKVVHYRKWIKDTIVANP
Description: Despite exquisite selectivity, maximal KLK3 labeling was achieved only after treatment with 20 μM 3 for 1 h. We therefore optimized probe potency by systematically modifying each amino acid side chain in the P1–P4 positions of a morpholine-capped peptidyl-DPP inhibitor scaffold and determined the potency of each analogue using competitive-ABPP against 3.[25],[26] LNCaP CM was first incubated with a peptidyl-DPP analogue for 1 h, followed by 1 h treatment with 20 μM 3 to assess the degree of KLK3 inhibition by densitometry (Figures S4 and S5 for fluorescent gels and Figure S6 for structures of each morpholine-capped peptidyl-DPP analogue). […] Second generation biotinylated 20 and fluorescent 21 ABPs (Figures 2G and S7) based on this scaffold retained exquisite selectivity for KLK3 in LNCaP CM, but in contrast to first-generation ABP 3 achieved maximum labeling at only 1 μM and readily detectable labeling down to 130 nM (Figures 2H and S7).
Figure S4: Typical gel obtained from assessment of the potency of P1 (top) and P2 (bottom) morpholine-DPP analogues against KLK3 using competitive ABPP. […] Residual KLK3 activity was calculated using densitometry (ImageQuant) by comparing to a DMSO treated sample. […]

KLK2 = molecular target: T2, KLK2 (Homo sapiens, UniProt P20151); assay: Determination of kinact/KI, fluorogenic substrate kinetic assay; format: biochemical; conditions: for selectivity (fold-change): KLK2 over KLK14
T2 construct: purchased R&D Systems
T2 sequence (P20151 25-261): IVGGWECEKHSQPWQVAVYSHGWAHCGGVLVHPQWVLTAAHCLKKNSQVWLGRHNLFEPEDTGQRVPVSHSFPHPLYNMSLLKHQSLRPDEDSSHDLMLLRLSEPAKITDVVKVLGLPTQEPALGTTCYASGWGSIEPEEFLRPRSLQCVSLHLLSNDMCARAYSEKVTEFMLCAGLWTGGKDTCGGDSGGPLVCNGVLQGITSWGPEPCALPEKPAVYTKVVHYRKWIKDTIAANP
Description: 1.1 Chemicals and Reagents
All chemicals and reagents were purchased from commercial suppliers and used without further purification. Rink Amide resin (100-200 mesh) and 2-Chlorotrityl chloride resin (100-200 mesh, 1% DVB) were obtained from Merck. Natural Fmoc-amino acids were obtained from AGTC Bioproducts Ltd. Unnatural Fmoc-amino acids were obtained from Fluorochem, Alfa Aesar, VWR, Merck, Iris Biotech, Bachem or Sigma Aldrich. Culture media, fetal bovine serum, trypsin, antibiotics and chemicals required for differentiation of osteoprogenitor cells were obtained from Sigma Aldrich, Gibco or Invitrogen. Amicon 3 KDa Centrifugal filter units were obtained from Merck. Recombinant human KLK2 and KLK14 were obtained from R&D Systems and activated using the supplier’s protocol. All remaining chemical reagents were obtained from VWR, Sigma Aldrich or Merck. […]
Fluorescent plate-based enzymatic assays were carried out using an Envision 2104 Multilabel Plate Reader (PerkinElmer) operating in kinetic mode for a minimum of 20 min with excitation/emission […]
Specificity […]
was calculated by normalizing RFUs-1 to the highest value, which was set at 100 %.
Calculations were made in GraphPad Prism 5.
Determination of kcat/KM: The KLK2 substrate and KLK14 substrate were serially diluted in the appropriate KLK assay buffer and 25 μL was added to the wells of a 96-well plate. Next, 25 μL of KLK2 (1.5 nM) or KLK14 (75 pM) was added to each well containing the substrate and the enzyme-substrate reaction was monitored for at least 10 min. The linear portion of each progress curve was used to calculate relative fluorescence units per second (RFUs-1).
KM, kcat, and kcat/KM parameters were determined by nonlinear regression in GraphPad Prism 5 (GraphPad Software). Each experiment was repeated three times and the results are presented as an average ± SEM.
Determination of kinact/KI: Under pseudo-first order conditions, a fixed amount of KLK2 (1.5 nM) or KLK14 (37 pM) was incubated with peptidyl-DPP analogue at different concentrations in the presence of 5 µM of substrate. The pseudo first-order rate constant, kobs, was calculated for each probe concentration using non-linear regression analysis in GraphPad Prism 5. The obtained values were plotted against probe concentration to afford the apparent second order rate constant kinact(app)/KI. The absolute value of the second order rate constant was then obtained by adjusting for the substrate competition factor (1 + [S]/Km), where S is the concentration of substrate in the assay and KM is the Michaelis Menten constant for that substrate/enzyme reaction.
2.5 Cell Migration Assays
Cell migration: The assay was performed as per the manufacturer’s protocol (https://www.corning.com/catalog/cls/documents/protocols/an_Chemotaxis_protocol.pdf).
Briefly, LNCaP-WT, LNCaP-mK14 and LNCaP-K14 cells were grown to 80% confluency in RPMI media supplemented with 5 % FBS. The media was then aspirated, the cells were washed with 2 mL PBS (3*) and incubated with serum-free RPMI (without phenol red) supplemented with 10 nM DHT ± 100 ng/mL Dox for 24 h. Cells were trypsinized, washed twice with serum-free RPMI and resuspended in serum-free RPMI. 100,000 cells in 100 µL of serum-free RPMI was then added to the transwell inserts placed in a 24-well plate (Corning […]
Figure S15: KLK2 and KLK14 substrates. (A) Structures (B) Optimal assay conditions for […]
S19) inhibitors (C) Michaelis-Menten (K M) and rate (kcat) constants for KLK substrates

KLK14 = molecular target: T3, KLK14 (Homo sapiens, UniProt Q9P0G3); assay: as above; format: biochemical; conditions: for kinact/KI / Kinact/KI KLK14: mean ± SEM (N = 3); for selectivity (fold-change): KLK14 over KLK2
T3 construct: purchased R&D Systems
T3 sequence (Q9P0G3 25-251): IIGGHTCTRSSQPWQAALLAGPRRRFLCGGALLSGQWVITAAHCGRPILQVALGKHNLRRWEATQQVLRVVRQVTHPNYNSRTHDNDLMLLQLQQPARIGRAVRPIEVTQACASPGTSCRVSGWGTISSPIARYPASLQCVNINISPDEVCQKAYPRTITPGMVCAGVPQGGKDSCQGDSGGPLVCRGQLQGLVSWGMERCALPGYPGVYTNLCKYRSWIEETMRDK

[3] = KLK2 probe optimization series, mean ± SEM (N = 3)
[4] = KLK14 probe optimization series
[5] = KLK14 probe optimization series, mean ± SEM (N = 3)

Compound | selectivity (fold-change) (KLK2; KLK2 probe optimization series) [fold] | Kinact/KI KLK2 (KLK2; [3]) [M^–1 s^–1] | Kinact/KI KLK14 (KLK14; KLK2 probe optimization series) [M^–1 s^–1] | Kinact/KI KLK14 (KLK14; [4]) [M^–1 s^–1] | further results
C[C@]12CCC(=O)C[C@@H]1CC[C@@H]1[C@@H]2CC[C@]2(C)[C@@H](O)CC[C@@H]12 [DHT, dihydrotestosterone] |  |  |  |  | KLK14 expression and activity (LNCaP cells): decreased; expression and activity of KLK2 and KLK3 (LNCaP cells): upregulated
O=C(NC(c1ccc(O)cc1)P(=O)(Oc1ccccc1)Oc1ccccc1)OCc1ccccc1 (stereo not shown) [compound 1] |  |  |  |  | KLK3 inhibition (in words) (KLK3 [1]): modestly potent inhibitor of KLK3
CCCCC(NC(=O)C(CCC(N)=O)NC(=O)C(CO)NC(=O)C(Cc1ccccc1)NC(=O)CCCCCN)C(=O)NC(CCCBr)B(O)O (stereo not shown) [compound 2] (H-[Ahx]FSQ[Nle]-X1; configuration not given here) |  |  |  |  | KLK3 inhibition (in words) (KLK3 [1]): potent and selective KLK3 inhibitor
CCC[C@H](NC(=O)[C@H](CCC(N)=O)NC(=O)[C@H](CC(N)=O)NC(=O)CN1CCOCC1)C(=O)NC(c1ccc(C(N)=O)cc1)P(=O)(Oc1ccccc1)Oc1ccccc1 (stereo partly shown) [compound 15] |  |  |  |  | KLK3 inhibition by competitive ABPP (KLK3 [2]): potent KLK3 inhibitor
CCC(NC(=O)CCCCCNC(=O)CCCCC1SCC2NC(=O)NC21)C(=O)NC(CCN)C(=O)NC(CC1CCCCC1)C(=O)NC(c1ccc(NC(=N)N)cc1)P(=O)(Oc1ccccc1)Oc1ccccc1 (stereo not drawn) [compound 22, Abu-Dab-Cha-Arg] | 6 |  |  |  | kinact/KI (KLK2; [3]): 3270 ± 39 M⁻¹ s⁻¹; kinact/KI (KLK14; KLK2 probe optimization series): 511 ± 18 M⁻¹ s⁻¹
CC(OCc1ccccc1)C(NC(=O)CCCCCNC(=O)CCCCC1SCC2NC(=O)NC21)C(=O)NC(CCCCN)C(=O)NC(Cc1cn(Cc2ccccc2)cn1)C(=O)NC(c1ccc(NC(=N)N)cc1)P(=O)(Oc1ccccc1)Oc1ccccc1 (stereo not shown) [compound 32, Thr(Bz)-Lys-His(Bz)-Arg] |  |  |  |  | kinact/KI (KLK14; [4]): 523 ± 46 M⁻¹ s⁻¹
CNC(=O)c1ccc(N2C(=S)N(c3ccc(C#N)c(C(F)(F)F)c3)C(=O)C2(C)C)cc1F [enzalutamide] |  |  |  |  | KLK14 expression and activity (LNCaP cells): restored; expression and activity of KLK2 and KLK3 (LNCaP cells): nullified
Abu-Dab-4 Pal-Arg [compound 24] | 7 | 2586 ± 54 | 390 ± 15 |  | 
Abu-Dab-Phe(3-CI)-Arg [compound 25] | 8 | 3615 ± 107 | 443 ± 16 |  | 
Abu-Lys(TFA)-Tyr-Arg [compound 29] |  | 128 ± 19 |  |  | 
Thr(Bz)-Dab-Abu-Arg [compound 36] |  |  |  | 18274 ± 680 | Kinact/KI KLK2 (KLK2; [5]): 1668 ± 60 M^–1 s^–1; selectivity (fold-change) (KLK14; [4]): 11 fold
Thr(Bz)-Dap-Abu-Arg [compound 37] |  |  |  | 12636 ± 496 | Kinact/KI KLK2 (KLK2; [5]): 1162 ± 40 M^–1 s^–1; selectivity (fold-change) (KLK14; [4]): 11 fold
Thr(Bz)-Lys-Abu-Arg [compound 35] |  |  |  | 5903 ± 254 | Kinact/KI KLK2 (KLK2; [5]): 231 ± 9 M^–1 s^–1; selectivity (fold-change) (KLK14; [4]): 25 fold
Thr(Bz)-Lys-Hse(Bz)Arg [compound 33] |  |  |  | 1121 ± 54 | 
Thr(Bz)-Lys-Phe(3,4-F2)-Arg [compound 34] |  |  |  | 602 ± 33 | 
Tyr(Bz)-Dab-Abu-Arg [compound 41] |  |  |  | 8894 ± 132 | Kinact/KI KLK2 (KLK2; [5]): 98 ± 4 M^–1 s^–1; selectivity (fold-change) (KLK14; [4]): 91 fold
[Abu][Dab]WR [compound 27] | 9 | 2374 ± 37 | 270 ± 5 |  | 
[Abu][Dab]YR [compound 26] | 14 | 7881 ± 249 | 552 ± 11 |  | 
[Abu][Dab][Phe(3,4-F2)]R [compound 28] | 2 | 5653 ± 265 | 2526 ± 173 |  | 
[Abu][Dab][Phe(4-NH2)]R [compound 23] | 4 | 1659 ± 35 | 432 ± 15 |  | 
[Dap][Dab]YR [compound 30] |  | 1849 ± 53 | 134 ± 6 |  | 
[Phe(4-Br)][Dab][Abu]R [compound 40] |  |  |  | 20215 ± 570 | Kinact/KI KLK2 (KLK2; [5]): 350 ± 9 M^–1 s^–1; selectivity (fold-change) (KLK14; [4]): 57 fold
